Assay results taken from ChEMBL document CHEMBL3745602, “Design, synthesis and in vivo screening of some novel quinazoline analogs as anti-hyperlipidemic and hypoglycemic agents” (2016).

Key:
Assay type in all cases: functional
Rattus norvegicus [1] = assay: Effect on body weight in Sprague-Dawley rat at 250 mg/kg, po dosed for last 7 days during 30 day high-fat diet feeding schedule measured every 5th day (reference value: 207.67 +/- 1.2 g)
Rattus norvegicus [2] = assay: Hypolipidemic activity in high fat-induced hyperlipidemic Sprague-Dawley rat assessed as ratio of cholesterol level to HDL level at 250 mg/kg, po dosed for last 7 days during 30 day high-fat diet feeding schedule (reference value: 1.88 +/- 0.05)
Rattus norvegicus [3] = assay: Hypolipidemic activity in high fat-induced hyperlipidemic Sprague-Dawley rat assessed as LDL level at 250 mg/kg, po dosed for last 7 days during 30 day high-fat diet feeding schedule (reference value: 22.42 +/- 0.41 mg/dl)
Rattus norvegicus [4] = assay: Hypoglycemic activity in Sprague-Dawley rat assessed as blood glucose level at 250 mg/kg, po dosed for last 7 days during 30 day high-fat diet feeding schedule (reference value: 63.70 +/- 0.7 mg/dl)
Rattus norvegicus [5] = assay: Hypolipidemic activity in high fat-induced hyperlipidemic Sprague-Dawley rat assessed as HDL level at 250 mg/kg, po dosed for last 7 days during 30 day high-fat diet feeding schedule (reference value: 37.5 +/- 0.96 mg/dl)
Rattus norvegicus [6] = assay: Hypolipidemic activity in high fat-induced hyperlipidemic Sprague-Dawley rat assessed as VLDL level at 250 mg/kg, po dosed for last 7 days during 30 day high-fat diet feeding schedule (reference value: 23.48+/- 0.78 mg/dl)
Rattus norvegicus [7] = assay: Hypolipidemic activity in high fat-induced hyperlipidemic Sprague-Dawley rat assessed as cholesterol level at 250 mg/kg, po dosed for last 7 days during 30 day high-fat diet feeding schedule (reference value: 70.8 +/- 0.5 mg/dl)
Rattus norvegicus [8] = assay: Hypolipidemic activity in high fat-induced hyperlipidemic Sprague-Dawley rat assessed as triglyceride level at 250 mg/kg, po dosed for last 7 days during 30 day high-fat diet feeding schedule (reference value: 74.3+/- 0.48 mg/dl)

**Q.** For `Cc1nc2cc(O)ccc2c(=O)n1-c1ccc(OC(C)(C)C(=O)O)cc1`, which Activity (Rattus norvegicus [1]) is on record?
**A.** Its Activity is 260.1 g.

**Q.** And the Ratio (Rattus norvegicus [2])?
**A.** The Ratio was 1.9.

**Q.** What about the Activity (Rattus norvegicus [3]) of the same compound?
**A.** The Activity was 35.81 mg/dL.

**Q.** And the Activity (Rattus norvegicus [4])?
**A.** The Activity was 83 mg/dL.

**Q.** And the Activity (Rattus norvegicus [5])?
**A.** Its Activity is 40.8 mg/dL.

**Q.** What about the Activity (Rattus norvegicus [6]) of the same compound?
**A.** The Activity was 35.38 mg/dL.

**Q.** What about the Activity (Rattus norvegicus [7]) of the same compound?
**A.** Its Activity is 77.7 mg/dL.

**Q.** What about the Activity (Rattus norvegicus [8]) of the same compound?
**A.** Its Activity is 114.8 mg/dL.

**Q.** How did the Activity (Rattus norvegicus [1]) turn out when `CC(C)OC(=O)C(C)(C)Oc1ccc(C(=O)c2ccc(Cl)cc2)cc1` [FENOFIBRATE] was run?
**A.** The Activity was 269 g.

**Q.** What about the Ratio (Rattus norvegicus [2]) of the same compound?
**A.** Its Ratio is 2.49.

**Q.** And the Activity (Rattus norvegicus [3])?
**A.** The Activity was 54.66 mg/dL.

**Q.** And the Activity (Rattus norvegicus [4])?
**A.** Its Activity is 86.41 mg/dL.

**Q.** What about the Activity (Rattus norvegicus [5]) of the same compound?
**A.** The Activity was 34.38 mg/dL.

**Q.** And the Activity (Rattus norvegicus [6])?
**A.** Its Activity is 37 mg/dL.

**Q.** And the Activity (Rattus norvegicus [7])?
**A.** Its Activity is 85.4 mg/dL.

**Q.** What about the Activity (Rattus norvegicus [8]) of the same compound?
**A.** Its Activity is 125.3 mg/dL.

**Q.** How did the Activity (Rattus norvegicus [1]) turn out when `Cc1nc2ccccc2c(=O)n1-c1ccc(OC(C)(C)C(=O)O)cc1` was run?
**A.** Its Activity is 272.17 g.

**Q.** And the Ratio (Rattus norvegicus [2])?
**A.** Its Ratio is 2.32.

**Q.** What about the Activity (Rattus norvegicus [3]) of the same compound?
**A.** Its Activity is 44.66 mg/dL.

**Q.** And the Activity (Rattus norvegicus [4])?
**A.** The Activity was 89.19 mg/dL.

**Q.** What about the Activity (Rattus norvegicus [5]) of the same compound?
**A.** Its Activity is 40 mg/dL.

**Q.** What about the Activity (Rattus norvegicus [6]) of the same compound?
**A.** The Activity was 37.05 mg/dL.

**Q.** What about the Activity (Rattus norvegicus [7]) of the same compound?
**A.** The Activity was 93 mg/dL.

**Q.** And the Activity (Rattus norvegicus [8])?
**A.** The Activity was 154.1 mg/dL.

**Q.** Which Activity (Rattus norvegicus [1]) does the source give for `CC(C)(Oc1ccc(-n2c(-c3ccccc3)nc3ccccc3c2=O)cc1)C(=O)O` here?
**A.** Its Activity is 284.5 g.

**Q.** And the Ratio (Rattus norvegicus [2])?
**A.** The Ratio was 3.11.

**Q.** And the Activity (Rattus norvegicus [3])?
**A.** Its Activity is 64.33 mg/dL.

**Q.** And the Activity (Rattus norvegicus [4])?
**A.** Its Activity is 114.8 mg/dL.

**Q.** What about the Activity (Rattus norvegicus [5]) of the same compound?
**A.** Its Activity is 31.6 mg/dL.

**Q.** And the Activity (Rattus norvegicus [6])?
**A.** The Activity was 24.3 mg/dL.

**Q.** And the Activity (Rattus norvegicus [7])?
**A.** Its Activity is 97.5 mg/dL.

**Q.** What about the Activity (Rattus norvegicus [8]) of the same compound?
**A.** The Activity was 158 mg/dL.

**Q.** With `CC1N(c2ccc(OC(C)(C)C(=O)O)cc2)C(=O)c2ccccc2N1c1ccccc1` (configuration not stated) as the compound, how does the Activity (Rattus norvegicus [1]) read?
**A.** Its Activity is 277.3 g.

**Q.** What about the Ratio (Rattus norvegicus [2]) of the same compound?
**A.** Its Ratio is 4.15.

**Q.** And the Activity (Rattus norvegicus [3])?
**A.** Its Activity is 54.78 mg/dL.

**Q.** And the Activity (Rattus norvegicus [4])?
**A.** The Activity was 115 mg/dL.

**Q.** And the Activity (Rattus norvegicus [5])?
**A.** Its Activity is 25.5 mg/dL.

**Q.** What about the Activity (Rattus norvegicus [6]) of the same compound?
**A.** Its Activity is 22.05 mg/dL.

**Q.** What about the Activity (Rattus norvegicus [7]) of the same compound?
**A.** The Activity was 106.4 mg/dL.

**Q.** What about the Activity (Rattus norvegicus [8]) of the same compound?
**A.** Its Activity is 154.8 mg/dL.

**Q.** For `Cc1nc2cc(O)ccc2c(=O)n1-c1ccc(OCC(=O)O)cc1`, which Activity (Rattus norvegicus [1]) is on record?
**A.** The Activity was 261.7 g.

**Q.** And the Ratio (Rattus norvegicus [2])?
**A.** The Ratio was 1.88.

**Q.** And the Activity (Rattus norvegicus [3])?
**A.** Its Activity is 47.05 mg/dL.

**Q.** And the Activity (Rattus norvegicus [4])?
**A.** Its Activity is 85.3 mg/dL.

**Q.** What about the Activity (Rattus norvegicus [5]) of the same compound?
**A.** Its Activity is 40.5 mg/dL.

**Q.** And the Activity (Rattus norvegicus [6])?
**A.** Its Activity is 37.7 mg/dL.

**Q.** And the Activity (Rattus norvegicus [7])?
**A.** Its Activity is 77 mg/dL.

**Q.** And the Activity (Rattus norvegicus [8])?
**A.** The Activity was 116.8 mg/dL.

**Q.** With `CC1N(c2ccc(OCC(=O)O)cc2)C(=O)c2ccccc2N1c1ccccc1` (configuration not stated) as the compound, how does the Activity (Rattus norvegicus [1]) read?
**A.** Its Activity is 274.7 g.

**Q.** What about the Ratio (Rattus norvegicus [2]) of the same compound?
**A.** The Ratio was 2.67.

**Q.** What about the Activity (Rattus norvegicus [3]) of the same compound?
**A.** The Activity was 70.91 mg/dL.

**Q.** And the Activity (Rattus norvegicus [4])?
**A.** Its Activity is 114.1 mg/dL.

**Q.** What about the Activity (Rattus norvegicus [5]) of the same compound?
**A.** The Activity was 41.4 mg/dL.

**Q.** What about the Activity (Rattus norvegicus [6]) of the same compound?
**A.** The Activity was 12.21 mg/dL.

**Q.** And the Activity (Rattus norvegicus [7])?
**A.** The Activity was 108.9 mg/dL.

**Q.** And the Activity (Rattus norvegicus [8])?
**A.** Its Activity is 158.8 mg/dL.

**Q.** For `Cc1nc2ccccc2c(=O)n1-c1ccc(OCC(=O)O)cc1`, which Activity (Rattus norvegicus [1]) is on record?
**A.** Its Activity is 273.85 g.

**Q.** And the Ratio (Rattus norvegicus [2])?
**A.** Its Ratio is 1.99.

**Q.** What about the Activity (Rattus norvegicus [3]) of the same compound?
**A.** Its Activity is 47.66 mg/dL.

**Q.** And the Activity (Rattus norvegicus [4])?
**A.** Its Activity is 91.8 mg/dL.

**Q.** What about the Activity (Rattus norvegicus [5]) of the same compound?
**A.** The Activity was 39.1 mg/dL.

**Q.** What about the Activity (Rattus norvegicus [6]) of the same compound?
**A.** The Activity was 34.89 mg/dL.

**Q.** What about the Activity (Rattus norvegicus [7]) of the same compound?
**A.** Its Activity is 78.5 mg/dL.

**Q.** And the Activity (Rattus norvegicus [8])?
**A.** The Activity was 117.1 mg/dL.

**Q.** What does the source list for `O=C(O)COc1ccc(-n2c(-c3ccccc3)nc3ccccc3c2=O)cc1`?
**A.** Activity (Rattus norvegicus [1]): 281.2 g; Ratio (Rattus norvegicus [2]): 3.26; Activity (Rattus norvegicus [3]): 57.22 mg/dL; Activity (Rattus norvegicus [4]): 112.8 mg/dL; Activity (Rattus norvegicus [5]): 33.7 mg/dL; Activity (Rattus norvegicus [6]): 28.16 mg/dL; Activity (Rattus norvegicus [7]): 110.8 mg/dL; Activity (Rattus norvegicus [8]): 144.8 mg/dL
